The subject of this experiment is Japanese white rabbits. Put plainly: Dryness stress test using rabbits (methylene blue staining of corneas). The format is in vivo, rabbit. Particulars: eyelids open 3 hours, 100 μL per eye, 0.5% w/v or 3% w/v in physiological saline, compared with sodium chondroitin sulfate around 20,000, p<0.01. As to the method: Sodium chondroitin sulfate having a weight average molecular weight of around 20,000 (Maruha Nichiro Corporation; sodium chondroitin sulfate in Japanese Pharmaceutical Codex) or sodium chondroitin sulfate having a weight average molecular weight of around 40,000 (SEIKAGAKU CORPORATION; grade N-K) was dissolved in a physiological saline solution (Otsuka Pharmaceutical Factory, Inc.) to 0.5% w/v or 3% w/v separately to prepare test substances.
Rabbits (Japanese white rabbits (KITAYAMA LABES CO., LTD.)) classified into five groups (n=5) according to the method of Nagano et al. (Journal of the Eye, 13(2), 267-270, 1996) were put under general anesthesia, rings obtained by cutting finger portions of gloves into a ring form were then installed on the right and left eyeballs, and the eyelids were opened forcedly. […] The corneas were excised from the eye surfaces, methylene blue dye was then extracted, and the absorbance at 660 nm was measured using the microplate reader Multiskan GO (Thermo Fisher Scientific K.K.). Since a cornea lesion is formed by eye dryness, and the amount of the dye attached to the cornea surfaces increases, it can be estimated that as the absorbance value increases, the eyes become dryer.

With sodium chondroitin sulfate, the “absorbance at 660 nm (methylene blue dye extracted from corneas)” value is given as “remarkably low”.
